Results taken from patent publication US20250288591A1, “TRIMEPRAZINE FOR USE IN TREATING TRIGEMINAL NEURALGIA AND FOR REDUCING PAIN RELATED THERETO” (UNDAUNTED BIO, INC., priority 2022, published 2025).

Tests used:
[1] = tested on: histamine H1-receptor; settings: more potent than Z-triprolidine; cited from earlier work
[2] = after application of 5% lidocaine plaster to skin; cited from earlier work
[3] = biological target: mu-opioid receptors (Homo sapiens, UniProt P35372); settings: relative to morphine; cited from earlier work
[4] = 100-400 mg/d; 8 patients with classic TN; cited from earlier work
[5] = 10 patients with TN; cited from earlier work
[6] = 23 patients, add-on therapy; cited from earlier work
[7] = PHN; study in Japan; cited from earlier work
[8] = Case report: patient with classic trigeminal neuralgia treated with trimeprazine; assay type: in vivo, human
Excerpt: A middle-aged patient suffers from classic trigeminal neuralgia presenting with sharp, lancinating, severe pain in their left face precipitated by showering, eating, facial animation, touch of their facial skin and nose, and brushing their teeth. The episodes of pain are initiated by the stimuli above and immediately stop all other activity until they subside in several seconds. Their behavior is modified to avoid the stimuli above, even affecting how they speak and eats. […] Their daily activities are dominated by fear of inducing another attack. […] They had no remedy for these terrible pains before treatment with trimeprazine. The patient began treatment with trimeprazine 5 mg morning and evening. The second day of the course the intensity and frequency of the attacks were in decline. […] Since then, they have noted some discomfort in their face but not the sharp, almost unbearable pain of before. […] On most days they take no medication now. […] They note that this is a common side-effect for them to experience if a medication has any potential for causing drowsiness.

[9] = Observed effect of trimeprazine on pain of post-herpetic neuralgia and trigeminal neuralgia; settings: in vivo
Excerpt: Post-herpetic pain involves the dorsal root ganglion (DRG), and trigeminal neuralgia involves the trigeminal ganglion (TG). Both the DRG and the TG are involved in the perception of itch and pain. Chronic neuropathic pain is a hypersensitivity state that results from peripheral and central sensitization. It is increasingly appreciated that chronic itch and chronic cough are also hypersensitivity syndromes.

Sequence of mu-opioid receptors (P35372 whole entry): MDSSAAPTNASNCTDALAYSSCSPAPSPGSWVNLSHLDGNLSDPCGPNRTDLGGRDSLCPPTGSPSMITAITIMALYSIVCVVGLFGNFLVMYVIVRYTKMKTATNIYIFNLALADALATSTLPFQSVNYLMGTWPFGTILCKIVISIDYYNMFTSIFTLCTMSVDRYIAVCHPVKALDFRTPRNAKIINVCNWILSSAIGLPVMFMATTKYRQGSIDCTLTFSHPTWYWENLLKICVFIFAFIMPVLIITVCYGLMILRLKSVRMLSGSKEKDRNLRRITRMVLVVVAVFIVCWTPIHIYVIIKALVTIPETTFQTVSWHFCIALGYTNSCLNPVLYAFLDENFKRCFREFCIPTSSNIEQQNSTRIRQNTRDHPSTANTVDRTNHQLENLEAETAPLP

For `Cc1ccc(/C(=C\CN2CCCC2)c2ccccn2)cc1` [E-triprolidine], the “potency relative to Z-triprolidine” value [1] is given as 1000 fold.
For `CCN(CC)CC(=O)Nc1c(C)cccc1C` [Lidocaine], the “share of the drug that reaches the systemic circulation” value [2] is listed as 3%.
For `CC[C@@H](c1cccc(O)c1)[C@@H](C)CN(C)C` [Tapentadol], the “potency in binding mu-opioid receptors, times less potent than morphine” value [3] is listed as 18 times.
For `CC1(C)O[C@@H]2[C@@H](CO[C@@]3(COS(N)(=O)=O)OC(C)(C)O[C@@H]23)O1` [Topiramate], the “patients in whom the drug was found effective” value [4] is given as 75%.
In the case of `CC[C@@H](C(N)=O)N1CCCC1=O` [levetiracetam, Levetiracetam], the improvement [5] is given as 50-90% and the “reduction in number of daily attacks” value [6] is given as 62%.
In the case of `CC(C)C[C@H](CN)CC(=O)O` [pregabalin, Pregabalin], the “analgesic property relative to gabapentin” value [7] is listed as 6 times.
With `CC(CN(C)C)CN1c2ccccc2Sc2ccccc21` (stereo not drawn) [trimeprazine] the side-effects ([8]; 5 mg tablets, one patient) was “no side-effects other than drowsiness”, the pain ([8]; after four days of medication, 5 mg morning and evening) was “all pain was gone” and the “residual discomfort in face” value ([8]; later use, ½ to 1 pill of 5 mg once or twice a day) was “successfully alleviated”. The “intensity and frequency of the attacks” value ([8]; second day of the course, 5 mg morning and evening, one patient) was “in decline” and the “effect on pain of post-herpetic neuralgia and trigeminal neuralgia” value [9] was “observed to treat the pain”.
